Values of other authors as cited in patent US8476259B2, “Fasudil in combination therapies for the treatment of pulmonary arterial hypertension” (Asahi Kasei Pharma Corporation, priority 2005, dated 2013).
Where two headings read alike, the source gives them in different places.

Assays:
Rho-kinase [1] = settings: administered to rats
[2] = tested on: patients with pulmonary hypertension; settings: aerosolization
[3] = tested on: patients with angiographically proven stable angina
[4] = tested on: monocrotaline-induced PH in rats; settings: for pulmonary arterial lesions: intravenous or oral treatment
[5] = tested on: patients with Raynaud's phenomenon and systemic sclerosis; settings: human, in vivo
[6] = tested on: spontaneously hypertensive rats; settings: rat, in vivo
rats injected with IL-6 = settings: simultaneous treatment
patients with severe PAH = settings: versus placebo
chronic hypoxic mice = settings: for development of chronic hypoxia-induced PH: intravenous or oral treatment
chronically hypoxic rats = settings: for high pulmonary arterial pressure: intravenous or oral treatment
[7] = tested on: pulmonary hypertension in rats; settings: for pulmonary vasodilation: spontaneous PH in fawn-hooded rats
[8] = tested on: patients with severe pulmonary hypertension; settings: intravenous
[9] = in vivo
[10] = tested on: rat models of systemic hypertension; settings: oral
[11] = tested on: progressive pulmonary arterial hypertension; settings: two experimental models
Rho-kinase [12] = settings: read-out: K(i) value for Rho-kinase
PAH = settings: oral
[13] = all 20 patients, 100 mg 3 times a day, 2 weeks
[14] = subgroup (n=8) with well-developed collaterals
[15] = inhaled, monocrotaline-induced PH, chronically hypoxic rats

For `CCCCC[C@H](O)/C=C/[C@@H]1[C@H]2C/C(=C/CCCC(=O)O)O[C@H]2C[C@H]1O` [prostacyclin], which “inhibitory effect on Rho-kinase” value (Rho-kinase [1]) is on record?
Its value is “lack the inhibitory effect on Rho-kinase”.

What about the duration of effects [2] of the same compound?
Its duration of effects is 15 min.

Which SAS score [3, 13] does the source give for `COc1cccc(CCc2ccccc2OCC(CN(C)C)OC(=O)CCC(=O)O)c1` (centres unmarked) [sarpogrelate, (φ-amino-alkoxy)phenyl-ethylethylbenzene] here?
Its SAS score is “significantly increased”.

What about the “exercise time to the onset of 0.1-mV ST depression” value [3, 13] of the same compound?
Its value is “prolonged”.

And the all parameters ([3]; patients (n=12) without well-developed collaterals)?
Its all parameters is “not significantly changed”.

And the SAS score [3, 14]?
The SAS score was 6.2±1.3 METS.

What about the “increase of double product at the onset of 0.1-mV ST depression” value [3, 14] of the same compound?
Its value is 15%.

What about the “time to the onset of 0.1-mV ST depression” value [3, 14] of the same compound?
The value was 295 ± 127 s.

What about the “pulmonary vascular remodeling, right side heart failure and mortality” value ([4]; immediately following monocrotaline injection) of the same compound?
The value was “suppressed the severe pulmonary vascular remodeling and right side heart failure and reduced mortality”.

What about the “reversal of established pulmonary hypertension” value ([4]; late treatment) of the same compound?
The value was “failed to reverse established pulmonary hypertension”.

And the “number of proliferating cell nuclear antigen-positive cells” value ([4]; rat, in vivo)?
Its value is “reduced”.

What about the “severity of pulmonary hypertension (medial thickness of small pulmonary arteries and right ventricle/left ventricle and septum ratio)” value ([4]; rat, in vivo) of the same compound?
Its value is “reduced”.

What about the “thickening of the alveolar walls and interstitial inflammatory cell infiltration” value ([4]; rat, in vivo) of the same compound?
Its value is “reduced”.

What about the “respiratory failure and mean pulmonary arterial pressure” value [5] of the same compound?
Its value is “significantly decreased”.

And the “systolic blood pressure or heart weight” value [6]?
The value was “no effect”.

What about the “IL-6-induced increase in medial thickness of small pulmonary arteries and right ventricular hypertrophy” value (rats injected with IL-6) of the same compound?
Its value is “prevented”.

With `CC#CCC(C)[C@H](O)/C=C/[C@@H]1[C@H]2C/C(=C/CCCC(=O)O)C[C@H]2C[C@H]1O` (some centres unmarked) [iloprost] as the compound, how does the exercise capacity (patients with severe PAH) read?
Its exercise capacity is “improved exercise capacity”.

With `CCCc1nn(C)c2c(=O)[nH]c(-c3cc(S(=O)(=O)N4CCN(C)CC4)ccc3OCC)nc12` [sildenafil] as the compound, how does the right ventricular hypertrophy (chronic hypoxic mice; chronic hypoxic mice) read?
The right ventricular hypertrophy was “reduces right ventricular hypertrophy”.

What about the pulmonary arterial pressure (chronically hypoxic rats; sildenafil, chronic hypoxic rats) of the same compound?
Its pulmonary arterial pressure is “reduces”.

What about the survival rate ([4]; PH induced by monocrotaline injection) of the same compound?
Its survival rate is “improves survival rate”.

Which liver toxicity (higher dose) does the source give for `COc1ccccc1Oc1c(NS(=O)(=O)c2ccc(C(C)(C)C)cc2)nc(-c2ncccn2)nc1OCCO` [bosentan] here?
The liver toxicity was “liver toxicity occurred with the higher dose”.

And the “six minute walk test” value (whole group, greater improvement at higher doses)?
Its value is “improved”.

What does the source list for `O=S(=O)(c1cccc2cnccc12)N1CCCNCC1` [fasudil, 1-(5-isoquinolinesulfonyl)-homopiperazine]?
development of chronic hypoxia-induced PH (chronic hypoxic mice): attenuates; high pulmonary arterial pressure (chronically hypoxic rats): nearly normalizes; pulmonary arterial lesions [4]: reduces pulmonary arterial lesions; mean pulmonary arterial pressure ([7]; inhaled fasudil, monocrotaline-induced PH, spontaneous PH, chronically hypoxic rats): selective mean pulmonary arterial pressure reductions; pulmonary vasodilation [7, 15]: sustained and selective pulmonary vasodilation; pulmonary vascular resistance [8]: significantly reduced; side effects [8]: without side effects

What does the source list for `Cc1cc2c(cc1CC(=O)c1sccc1S(=O)(=O)Nc1onc(C)c1Cl)OCO2` [sitaxsentan]?
decrease in pulmonary vascular resistance [9]: 30%; six minute walk test [9]: improvement

For `C[C@@H](N)[C@H]1CC[C@H](C(=O)Nc2ccncc2)CC1` [Y-27632], which “development of chronic hypoxia-induced PH” value (chronic hypoxic mice) is on record?
Its value is “attenuates”.

What about the hypotensive effect ([10]; normotensive rats) of the same compound?
Its hypotensive effect is “smaller transient effect”.

And the hypotensive effect ([10]; rat models of systemic hypertension)?
Its hypotensive effect is “potent hypotensive effects”.

What about the “elevated pulmonary artery pressure, acute effect” value (chronically hypoxic rats; intravenous) of the same compound?
The value was “nearly normalized the elevated pulmonary artery pressure”.

What about the “high pulmonary arterial pressure” value (chronically hypoxic rats) of the same compound?
The value was “nearly normalizes”.

And the pulmonary arterial lesions [4]?
Its pulmonary arterial lesions is “reduces pulmonary arterial lesions”.

And the “mean pulmonary arterial pressure” value ([7]; 5 minutes of inhaled Y-27632)?
Its value is “decreased mean pulmonary arterial pressure without reducing mean systemic arterial pressure”.

And the “duration of hypotensive effect on hypoxic pulmonary hypertension” value ([7]; inhaled)?
Its value is “at least 5 hrs”.

What about the pulmonary vasodilation [7, 15] of the same compound?
The pulmonary vasodilation was “sustained and selective pulmonary vasodilation”.

Which “lung vascular remodeling, pulmonary hypertension and right heart hypertrophy” value [11] does the source give for `Cc1ccc(NC(=O)c2ccc(CN3CCN(C)CC3)cc2)cc1Nc1nccc(-c2cccnc2)n1` [Gleevec] here?
Its value is “virtually complete reversal”.

For `Cc1cncc2cccc(S(=O)(=O)N3CCCNC[C@@H]3C)c12` [H-1152P, (S)-(+)-2-methyl-1-[(4-methyl-5-isoquinoline)sulfonyl]-homopiperazine], which Ki (Rho-kinase [12]) is on record?
The Ki was 1.6 nM.

For `CC#CCC(C)[C@H](O)/C=C/[C@@H]1[C@H]2c3cccc(CCCC(=O)O)c3O[C@H]2C[C@H]1O` (mixture of isomers) [beraprost], which “inhibitory effect on Rho-kinase” value (Rho-kinase [1]) is on record?
The value was “lack the inhibitory effect on Rho-kinase”.

And the “benefit in PAH over time” value (PAH)?
The value was “benefit in a study in PAH at 3 and 6 months but not at 9 or 12 months”.
